Values of other authors as cited in patent publication US7294691B1, “Soluble secreted α2δ-2calcium channel subunit polypeptide” (Warner Lambert Company, priority 2000, dated 2007).

Tested on: [^3H]gabapentin binding site
Conditions: saturation binding in the presence of L-leucine; reduces [^3H]gabapentin binding affinity

CC(C)C[C@H](N)C(=O)O [L-Leucine]
interaction with the [^3H]gabapentin binding site: competitive interaction
